In patent US10744209B2, “Biodegradable polymeric nanoparticle conjugates and use thereof” (NEW YORK UNIVERSITY, priority 2015, dated 2020):

What was measured:
[1] = cited from earlier work
RAW264.7 cells = test: RANKL-induced osteoclast differentiation, TRAP staining; format: cell-based; details: 50 ng/ml RANKL; CGS21680 10^−6M; four days
Experimental: Tartrate-resistant acid phosphatase (TRAP) staining was carried out. The number of TRAP-positive MNCs containing ≥3 nuclei/cell was scored.

Nc1ncnc2c1ncn2[C@@H]1O[C@H](CO)[C@@H](O)[C@H]1O [Adenosine, adenosine]
half-life in vivo [1]: < 10 s

CCNC(=O)[C@H]1O[C@@H](n2cnc3c(N)nc(NCCc4ccc(CCC(=O)O)cc4)nc32)[C@H](O)[C@@H]1O [CGS21680]
RANKL-induced osteoclast differentiation (RAW264.7 cells): block
